In patent US20160235068A1, “CONTROLLED RELEASE PARTICLES, PRODUCTION METHOD THEREOF, MOLDING MATERIAL, AND MOLDED ARTICLE” (priority 2013, published 2016):
Converted amounts (≈) assume the structure as drawn.

Assays:
[1] = cited from earlier work
[2] = Alkali-resistance test (Test A), suspending agent of controlled release particles; assay type: physicochemical; details: 168 h, 0.05 %
Description: 1 mL of the diluted suspending agent was weighed in a glass bottle, and 4 mL of a saturated calcium hydroxide solution was added thereto, thereby preparing a test solution. The test solution was allowed to stand in a constant temperature of 40° C.
After 7 days from allowing the test solution to stand, 5 mL of acetonitrile was added to the test solution, the antibiotic compound was extracted, the amount of the antibiotic compound was determined with HPLC, and the remaining ratio of the antibiotic compound was calculated.

## CN/C(=N\[N+](=O)[O-])NCc1cnc(Cl)s1 [Clothianidin, (E)-1-(2-chlorothiazole-5-ylmethyl)-3-methyl-2-nitroguanidine]
[1]
  solubility to water: 330 µg/mL (≈ 1320 µM)

## O=[N+]([O-])NC1=NCCN1Cc1ccc(Cl)nc1 [Imidacloprid, 1-(6-chloro-3-pyridylmethyl)-N-nitroimidazolidin-2-ylideneamine]
[2]
  Alkali-resistance (Test A) Remaining ratio (%) of antibiotic compound: 0%
